The first test concerns microbial flora in the target watershed. The experiment in a line: minimum inhibitory concentration (MIC) by EUCAST database and drug resistance prediction invalid concentration PNECr. The note with it: PNECR=MIC/AF, AF 10.
Description: Minimum inhibitory concentration (MIC) of some antibiotics and drug resistance prediction invalid concentration (PNECr) of microbes
On to `NCC[C@H](O)C(=O)N[C@@H]1C[C@H](N)[C@@H](O[C@H]2O[C@H](CN)[C@@H](O)[C@H](O)[C@H]2O)[C@H](O)[C@H]1O[C@H]1O[C@H](CO)[C@@H](O)[C@H](N)[C@H]1O` [Amikacin], for which the PNECr is on record as 25.
Still for that read-out and setting: the same measure for `C[C@@H]1[C@H](O)[C@@H](C)/C=C/C=C/C=C/C=C/C=C/C=C/C=C/[C@H](O[C@@H]2O[C@H](C)[C@@H](O)[C@H](N)[C@@H]2O)C[C@@H]2O[C@](O)(C[C@@H](O)C[C@@H](O)[C@H](O)CC[C@@H](O)C[C@@H](O)CC(=O)O[C@H]1C)C[C@H](O)[C@H]2C(=O)O` [Amphotericin B]: 0.8; for `COC[C@H]1O[C@@H](OC2OC[C@@H]3O[C@]4(O[C@H]3[C@H]2OC(=O)C(C)C)O[C@H](C)[C@@](O)(C(C)=O)[C@@H]2OCO[C@H]24)[C@@H](OC)[C@@H](O)[C@@H]1O[C@@H]1O[C@H](C)[C@H](OC)[C@H](O[C@H]2C[C@@]3(C)OC4(C[C@@H](O)[C@H](O[C@H]5C[C@@H](O)[C@H](OC(=O)c6c(C)c(Cl)c(O)c(Cl)c6OC)[C@@H](C)O5)[C@@H](C)O4)O[C@@H]3[C@@H](C)O2)[C@H]1O` (stereo partly drawn) [Avilamycin]: 100; for `C[C@@H](O)[C@H]1C(=O)N2C(C(=O)O)=C(S[C@@H]3CN[C@H](CNS(N)(=O)=O)C3)[C@H](C)[C@H]12` [Doripenan]: 0.2.

For another test the test system is unchanged.
Assay: not given
The note with it: determined by EUCAST database; unit assumed; cited from earlier work.
In the case of `NCC[C@H](O)C(=O)N[C@@H]1C[C@H](N)[C@@H](O[C@H]2O[C@H](CN)[C@@H](O)[C@H](O)[C@H]2O)[C@H](O)[C@H]1O[C@H]1O[C@H](CO)[C@@H](O)[C@H](N)[C@H]1O` [Amikacin], the Observed MIC was 250 µg/mL.
Take `CC1(C)S[C@@H]2[C@H](NC(=O)[C@H](N)c3ccc(O)cc3)C(=O)N2[C@H]1C(=O)O` [Amoxicillin]: the Observed MIC was 4 µg/mL.
As for `C[C@@H]1[C@H](O)[C@@H](C)/C=C/C=C/C=C/C=C/C=C/C=C/C=C/[C@H](O[C@@H]2O[C@H](C)[C@@H](O)[C@H](N)[C@@H]2O)C[C@@H]2O[C@](O)(C[C@@H](O)C[C@@H](O)[C@H](O)CC[C@@H](O)C[C@@H](O)CC(=O)O[C@H]1C)C[C@H](O)[C@H]2C(=O)O` [Amphotericin B], the Observed MIC is 8 µg/mL.
With `CC1(C)S[C@@H]2[C@H](NC(=O)[C@H](N)c3ccccc3)C(=O)N2[C@H]1C(=O)O` [Ampicillin], the Observed MIC was 4 µg/mL.
In the case of `COC[C@H]1O[C@@H](OC2OC[C@@H]3O[C@]4(O[C@H]3[C@H]2OC(=O)C(C)C)O[C@H](C)[C@@](O)(C(C)=O)[C@@H]2OCO[C@H]24)[C@@H](OC)[C@@H](O)[C@@H]1O[C@@H]1O[C@H](C)[C@H](OC)[C@H](O[C@H]2C[C@@]3(C)OC4(C[C@@H](O)[C@H](O[C@H]5C[C@@H](O)[C@H](OC(=O)c6c(C)c(Cl)c(O)c(Cl)c6OC)[C@@H](C)O5)[C@@H](C)O4)O[C@@H]3[C@@H](C)O2)[C@H]1O` (stereo partly drawn) [Avilamycin], the Observed MIC is 1000 µg/mL.
Regarding `CC[C@H]1OC(=O)[C@H](C)[C@@H](O[C@H]2C[C@@](C)(OC)[C@@H](O)[C@H](C)O2)[C@H](C)[C@@H](O[C@@H]2O[C@H](C)C[C@H](N(C)C)[C@H]2O)[C@](C)(O)C[C@@H](C)CN(C)[C@H](C)[C@@H](O)[C@]1(C)O` [Azithromycin], the Observed MIC was 16 µg/mL.
`C[C@H]1[C@H](NC(=O)/C(=N\OC(C)(C)C(=O)O)c2csc(N)n2)C(=O)N1S(=O)(=O)O` [Aztreonam]: the Observed MIC is 32 µg/mL.
With `N[C@@H](C(=O)N[C@@H]1C(=O)N2C(C(=O)O)=C(Cl)CS[C@H]12)c1ccccc1` [Cefaclor], the Observed MIC was 32 µg/mL.
For `Cc1nnc(SCC2=C(C(=O)O)N3C(=O)[C@@H](NC(=O)Cn4cnnn4)[C@H]3SC2)s1` [Cefazolin], the Observed MIC is 32 µg/mL.
`CO/N=C(\C(=O)N[C@@H]1C(=O)N2C(C(=O)[O-])=C(C[N+]3(C)CCCC3)CS[C@H]12)c1csc(N)n1` [Cefepime]: the Observed MIC is 8 µg/mL.
As to `CO/N=C(\C(=O)N[C@@H]1C(=O)N2C(C(=O)O)=C(COC(C)=O)CS[C@H]12)c1csc(N)n1` [Cefotaxime], the Observed MIC was 2 µg/mL.
On to `CO/N=C(\C(=O)N[C@@H]1C(=O)N2C(C(=O)[O-])=C(C[n+]3cccc4c3CCC4)CS[C@H]12)c1csc(N)n1` [Cefpirome], for which the Observed MIC was 4 µg/mL.
In the case of `CC(C)(O/N=C(\C(=O)N[C@@H]1C(=O)N2C(C(=O)[O-])=C(C[n+]3ccccc3)CS[C@H]12)c1csc(N)n1)C(=O)O` [Ceftazidime], the Observed MIC is 16 µg/mL.
Consider `Nc1nc(/C(=C/CC(=O)O)C(=O)N[C@@H]2C(=O)N3C(C(=O)O)=CCS[C@H]23)cs1` [Ceftibuten], for which the Observed MIC was 8 µg/mL.
For `CO/N=C(\C(=O)N[C@@H]1C(=O)N2C(C(=O)O)=C(CSC(=O)c3ccco3)CS[C@H]12)c1csc(N)n1` [Ceftiofur], the Observed MIC was 8 µg/mL.
For the compound `CO/N=C(\C(=O)N[C@@H]1C(=O)N2C(C(=O)O)=C(CSc3nc(=O)c(=O)[nH]n3C)CS[C@H]12)c1csc(N)n1` [Ceftriaxone], the Observed MIC was 2 µg/mL.
On to `CO/N=C(\C(=O)N[C@@H]1C(=O)N2C(C(=O)O)=C(COC(N)=O)CS[C@H]12)c1ccco1` [Cefuroxime], for which the Observed MIC was 8 µg/mL.
For `O=C(O)c1cn(C2CC2)c2cc(N3CCNCC3)c(F)cc2c1=O` [Ciprofloxacin], the Observed MIC is 2 µg/mL.
With `NC1CCN(c2c(F)cc3c(=O)c(C(=O)O)cn(C4CC4)c3c2Cl)C1` (stereo not drawn) [Clinafloxacin], the Observed MIC was 32 µg/mL.
Consider `Cc1onc(-c2ccccc2Cl)c1C(=O)N[C@@H]1C(=O)N2[C@@H]1SC(C)(C)[C@@H]2C(=O)O` [Cloxacillin], for which the Observed MIC was 64 µg/mL.
In the case of `CCCCCCCCCC(=O)N[C@@H](Cc1c[nH]c2ccccc12)C(=O)N[C@H](CC(N)=O)C(=O)N[C@@H](CC(=O)O)C(=O)N[C@@H]1C(=O)NCC(=O)N[C@@H](CCCN)C(=O)N[C@@H](CC(=O)O)C(=O)N[C@H](C)C(=O)N[C@@H](CC(=O)O)C(=O)NCC(=O)N[C@H](CO)C(=O)N[C@@H]([C@H](C)CC(=O)O)C(=O)N[C@@H](CC(=O)c2ccccc2N)C(=O)O[C@@H]1C` [Daptomycin], the Observed MIC was 32 µg/mL.
On to `CN1CCN(c2cc3c(cc2F)c(=O)c(C(=O)O)cn3-c2ccc(F)cc2)CC1` [Difloxacin], for which the Observed MIC was 2 µg/mL.
For `C[C@@H](O)[C@H]1C(=O)N2C(C(=O)O)=C(S[C@@H]3CN[C@H](CNS(N)(=O)=O)C3)[C@H](C)[C@H]12` [Doripenan], the Observed MIC was 2 µg/mL.
As to `CCN1CCN(c2cc3c(cc2F)c(=O)c(C(=O)O)cn3C2CC2)CC1` [Enrofloxacin], the Observed MIC was 8 µg/mL.
`C[C@@H](O)[C@H]1C(=O)N2C(C(=O)O)=C(S[C@@H]3CN[C@H](C(=O)Nc4cccc(C(=O)O)c4)C3)[C@H](C)[C@H]12` [Ertapenem]: the Observed MIC was 2 µg/mL.
For the compound `CC[C@H]1OC(=O)[C@H](C)[C@@H](O[C@H]2C[C@@](C)(OC)[C@@H](O)[C@H](C)O2)[C@H](C)[C@@H](O[C@@H]2O[C@H](C)C[C@H](N(C)C)[C@H]2O)[C@](C)(O)C[C@@H](C)C(=O)[C@H](C)[C@@H](O)[C@]1(C)O` [Erythromycin], the Observed MIC was 16 µg/mL.
On to `C[C@@H](O)[C@H]1C(=O)N2C(C(=O)O)=C([C@H]3CCCO3)S[C@H]12` [Faropenem], for which the Observed MIC is 8 µg/mL.
Take `CCc1c(Cl)c(O)c(Cl)c(O)c1C(=O)O[C@H]1[C@H](O)[C@H](OC)[C@H](OC/C2=C\C=C\C[C@H](O)/C(C)=C/[C@H](CC)[C@@H](O[C@@H]3OC(C)(C)[C@@H](OC(=O)C(C)C)[C@H](O)[C@@H]3O)/C(C)=C/C(C)=C/C[C@@H]([C@@H](C)O)OC2=O)O[C@@H]1C` [Fidaxomicin]: the Observed MIC was 8 µg/mL.
With `OC(Cn1cncn1)(Cn1cncn1)c1ccc(F)cc1F` [Fluconazol], the Observed MIC was 64 µg/mL.
With `CC1CCc2cc(F)cc3c(=O)c(C(=O)O)cn1c23` (stereo not drawn) [Flumequine], the Observed MIC is 64 µg/mL.
Regarding `COc1c(N2CCNC(C)C2)c(F)cc2c(=O)c(C(=O)O)cn(C3CC3)c12` (stereo not drawn) [Gatifloxacin], the Observed MIC is 4 µg/mL.
Take `NNC(=O)c1ccncc1` [Isoniazide]: the Observed MIC is 64 µg/mL.
With `CC(=O)N1CCN(c2ccc(OCC3COC(Cn4ccnc4)(c4ccc(Cl)cc4Cl)O3)cc2)CC1` (stereo not drawn) [Ketoconazole], the Observed MIC is 4 µg/mL.
`C[C@@H](O)[C@H]1C(=O)N2C(C(=O)O)=C(S[C@@H]3CN[C@H](C(=O)N(C)C)C3)[C@H](C)[C@H]12` [MeropeneM]: the Observed MIC was 2 µg/mL.
As for `Cc1ncc([N+](=O)[O-])n1CCO` [Metronidazole], the Observed MIC was 16 µg/mL.
In the case of `C/C(=C\C(=O)OCCCCCCCCC(=O)O)C[C@@H]1OC[C@H](C[C@@H]2O[C@H]2[C@@H](C)[C@H](C)O)[C@@H](O)[C@H]1O` [Mupirocin], the Observed MIC was 32 µg/mL.
With `CCN[C@@H]1C[C@H](N)[C@@H](O[C@H]2OC(CN)=CC[C@H]2N)[C@H](O)[C@H]1O[C@H]1OC[C@](C)(O)[C@H](NC)[C@H]1O` [Netilmicin], the Observed MIC is 16 µg/mL.
As to `CCn1cc(C(=O)O)c(=O)c2cc(F)c(N3CCNCC3)cc21` [Norfloxacin], the Observed MIC was 16 µg/mL.
As to `Cc1onc(-c2ccccc2)c1C(=O)N[C@@H]1C(=O)N2[C@@H]1SC(C)(C)[C@@H]2C(=O)O` [Oxacillin], the Observed MIC is 32 µg/mL.
With `CC1(C)S[C@@H]2[C@H](NC(=O)COc3ccccc3)C(=O)N2[C@H]1C(=O)O` [Phenoxymethylpenicillin], the Observed MIC was 4 µg/mL.
Turning to `CCN1CCN(C(=O)N[C@@H](C(=O)N[C@@H]2C(=O)N3[C@@H]2SC(C)(C)[C@@H]3C(=O)O)c2ccccc2)C(=O)C1=O` [Piperacillin], the Observed MIC was 4 µg/mL.
In the case of `C=C[C@]1(C)C[C@@H](OC(=O)CS[C@@H]2C[C@H]3CC[C@@H](C2)N3C)[C@]2(C)[C@H](C)CC[C@]3(CCC(=O)[C@H]32)[C@@H](C)[C@@H]1O` [Retapamulin], the Observed MIC is 64 µg/mL.
With `CC[C@H]1OC(=O)[C@H](C)[C@@H](O[C@H]2C[C@@](C)(OC)[C@@H](O)[C@H](C)O2)[C@H](C)[C@@H](O[C@@H]2O[C@H](C)C[C@H](N(C)C)[C@H]2O)[C@](C)(O)C[C@@H](C)/C(=N\OCOCCOC)[C@H](C)[C@@H](O)[C@]1(C)O` [Roxithromycin], the Observed MIC is 2 µg/mL.
Take `Cc1ncc([N+](=O)[O-])n1CC(C)O` (stereo not drawn) [Secnidazole]: the Observed MIC is 32 µg/mL.
Turning to `CN[C@@H]1[C@H](O)[C@H](NC)[C@H]2O[C@@]3(O)C(=O)C[C@@H](C)O[C@H]3O[C@@H]2[C@H]1O` [Spectinomycin], the Observed MIC is 2 µg/mL.
As to `CC[C@H]1OC(=O)[C@H](C)C(=O)[C@H](C)[C@@H](O[C@@H]2O[C@H](C)C[C@H](N(C)C)[C@H]2O)[C@](C)(OC)C[C@@H](C)C(=O)[C@H](C)[C@H]2N(CCCCn3cnc(-c4cccnc4)c3)C(=O)O[C@]12C` [Telithromycin], the Observed MIC was 16 µg/mL.
Regarding `CN(C)c1cc(NC(=O)CNC(C)(C)C)c(O)c2c1C[C@H]1C[C@H]3[C@H](N(C)C)C(O)=C(C(N)=O)C(=O)[C@@]3(O)C(O)=C1C2=O` [Tigecycline], the Observed MIC was 16 µg/mL.
`NC[C@H]1O[C@H](O[C@H]2[C@H](O)[C@@H](O[C@H]3O[C@H](CO)[C@@H](O)[C@H](N)[C@H]3O)[C@H](N)C[C@@H]2N)[C@H](N)C[C@@H]1O` [Tobramycin]: the Observed MIC is 16 µg/mL.
Consider `COc1cc(Cc2cnc(N)nc2N)cc(OC)c1OC` [Trimethoprim], for which the Observed MIC was 16 µg/mL.
Take `C[C@@H](c1ncncc1F)[C@](O)(Cn1cncn1)c1ccc(F)cc1F` [Voriconazole]: the Observed MIC is 2 µg/mL.

The values above are taken from US11959122B2.
